Reference: patent US8778896B2, “Levoisovalerylspiramycin I, II or III, preparations, preparation methods and uses thereof” (Shenyang Tonglian Group Co., Ltd., priority 2010, dated 2014)
≈ marks a conversion by molar mass, not a printed value.

What was measured:
[1] = system: staphylococcus aureus12; assay: MIC against the infecting test organism; format: cell-based, staphylococcus aureus; conditions: read-out: MIC
[2] = system: staphylococcus aureus16; assay: MIC against the infecting test organism; format: cell-based, staphylococcus aureus; conditions: read-out: MIC
[3] = system: streptococcus pneumoniae3; assay: MIC against the infecting test organism; format: cell-based, streptococcus pneumoniae; conditions: read-out: MIC
[4] = system: gonococcus (10); assay: Clinical isolates, agar double dilution method; format: cell-based; conditions: 10 clinical isolates of gonococcus; for MIC50: read-out: MIC50; for MIC90: read-out: MIC90
[5] = system: pyogenic streptococcus (93); assay: Clinical isolates, agar double dilution method; format: cell-based; conditions: 93 clinical isolates of pyogenic streptococcus; for MIC50: read-out: MIC50; for MIC90: read-out: MIC90
[6] = system: S. epidermidis (115); assay: Clinical isolates, agar double dilution method; format: cell-based; conditions: Staphylococcus epidermidis, 115 clinical isolates of S. epidermidis; for MIC50: read-out: MIC50; for MIC90: read-out: MIC90
[7] = system: Chlamydia Trachomatis B/TW-5/OT; assay: Chlamydia in vitro MIC, McCoy cells, immunofluorescence; format: cell-based; conditions: 48 hours, read-out: MIC
[8] = system: streptococcus pneumoniae57; assay: Curative effect on mouse with abdominal infection (ED50); format: in vivo, streptococcus pneumoniae; conditions: Streptococcus, 168 h, streptococcus pneumoniae57, challenging dose 8.8 × 10^4 CFU/0.5 ml, deaths in 7 days, Bliss, read-out: ED50
Method: (§1) Test method: preparation of infection bacterial liquid: taking out the test bacterial liquid which is kept in a refrigerator at −80[…] to room temperature for about 1 h, then inoculating streptococcus pneumonia, pyogenic streptococcus and enterococcus absorbing 0.1 ml bacterial liquid respectively to 2 ml MH broth (add 10% inactivated horse serum), and inoculating 0.1 ml bacterial liquid of staphylococcus aureus to 2 ml MH broth according to the same method above; putting it in an incubator at 37[…] to be cultivated for 18 h, to obtain original bacterial liquid; diluting the original bacterial liquid with 5% gastric mucin to make animals infected with 100% lethal bacteria, to obtain infection bacterial liquid.
(§2) The clinical route of administration of carrimycin is proposed to be oral administration, thus intragastric administration is adopted in carrimychin test. Levoisovalerylspiramycin I (obtained in Embodiment 1) and of crystalline compound of levoisovalerylspiramycin I (prepared in Embodiment 27) are fed to animals via […].
(§3) After the mice are infected, respectively feed each mouse 0.2 ml via intragastric administration at 0.5 to 6 h, and they have no adverse reaction. Observe the number of deaths in 7 days, and calculate the 50% effective dose (ED50) of each drug for the infected mouse and compare the protective effect of drugs by Bliss program.

[9] = system: streptococcus pneumoniae3; assay: as above; format: in vivo, streptococcus pneumoniae; conditions: Streptococcus, 168 h, streptococcus pneumoniae3, challenging dose 6.4 × 10^4 CFU/0.5 ml, deaths in 7 days, Bliss, read-out: ED50
Method: as §1, §2, §3

[10] = system: streptococcus pneumoniae18; assay: as above; format: in vivo, streptococcus pneumoniae; conditions: Streptococcus, 168 h, streptococcus pneumoniae18, challenging dose 9.6 × 10^4 CFU/0.5 ml, deaths in 7 days, Bliss, read-out: ED50
Method: as §1, §2, §3

[11] = system: Chlamydia Trachomatis D/UW-3/Cx; assay: Chlamydia in vitro MIC, McCoy cells, immunofluorescence; format: cell-based; conditions: 48 hours, read-out: MIC
[12] = system: streptococcus pneumoniae (112); assay: Clinical isolates, agar double dilution method; format: cell-based; conditions: 112 clinical isolates of streptococcus pneumoniae; for MIC50: read-out: MIC50; for MIC90: read-out: MIC90
[13] = system: enterococcus32; assay: Curative effect on mouse with abdominal infection (ED50); format: in vivo, enterococcus; conditions: Enterococcus, 168 h, enterococcus32, challenging dose 5.4 × 10^4 CFU/0.5 ml, deaths in 7 days, Bliss, read-out: ED50
Method: as §1, §2, §3

[14] = system: staphylococcus aureus16; assay: as above; format: in vivo, staphylococcus aureus; conditions: Staphylococcus, AUREUS16, 168 h, staphylococcus aureus16, challenging dose 5.2 × 10^3 CFU/0.5 ml, deaths in 7 days, Bliss, read-out: ED50
Method: as §1, §2, §3

[15] = system: staphylococcus aureus21; assay: as above; format: in vivo, staphylococcus aureus; conditions: Staphylococcus, AUREUS21, 168 h, staphylococcus aureus21, challenging dose 4.2 × 10^4 CFU/0.5 ml, deaths in 7 days, Bliss, read-out: ED50
Method: as §1, §2, §3

[16] = system: staphylococcus aureus12; assay: as above; format: in vivo, staphylococcus aureus; conditions: Staphylococcus, AUREUS12, 168 h, staphylococcus aureus12, challenging dose 4.8 × 10^4 CFU/0.5 ml, deaths in 7 days, Bliss, read-out: ED50
Method: as §1, §2, §3

[17] = system: staphylococcus aureus76; assay: as above; format: in vivo, staphylococcus aureus; conditions: Staphylococcus, AUREUS76, 168 h, staphylococcus aureus76, challenging dose 5.8 × 10^4 CFU/0.5 ml, deaths in 7 days, Bliss, read-out: ED50
Method: as §1, §2, §3

[18] = system: hemophilus influenzae (37); assay: Clinical isolates, agar double dilution method; format: cell-based; conditions: 37 clinical isolates of hemophilus influenzae; for MIC50 / MIC90: Haemophilus influenzae; for MIC50: read-out: MIC50; for MIC90: read-out: MIC90
[19] = Acute toxicity on mice via oral administration; conditions: 4000 mg/kg
Method: Both mice and rats take drugs orally (levoisovalerylspiramycin I, II and III prepared in Embodiment 1)
After observing the mice and rats for two days before test, and those without abnormal conditions is carried out test. Don't give anything to eat to mice and rats overnight before test. […] In this test, feed drugs to mice and rats respectively as per 4000 mg/kg, wherein, mice follow 100 mg/ml, with intragastric administration capacity of 0.6-0.8 ml per one, while rats 173 mg/ml, with intragastric administration capacity of 0.8˜1.0 ml/50 g. Observe those taking drugs for one week for toxic reaction and death.

[20] = system: staphylococcus aureus (155); assay: Clinical isolates, agar double dilution method; format: cell-based; conditions: 155 clinical isolates of staphylococcus aureus; for MIC50: read-out: MIC50; for MIC90: read-out: MIC90

Structure (SMILES)	MIC [2]	MIC [3]	MIC range [4]	MIC50 [4]	MIC90 [4]	MIC50 [5]	MIC90 [5]	MIC50 [6]	MIC90 [6]	MIC [7]	ED50 [8]	ED50 [9]	ED50 [10]	MIC [11]	MIC50 [12]	MIC90 [12]	ED50 [13]	ED50 [14]	ED50 [15]	ED50 [16]	further results
COC1C(O)CC(=O)OC(C)C/C=C/C=C/C(OC2CCC(N(C)C)C(C)O2)C(C)CC(CC=O)C1OC1OC(C)C(OC2CC(C)(O)C(OC(=O)CC(C)C)C(C)O2)C(N(C)C)C1O (stereo not drawn) [Levoisovalerylspiramycin I, levoisovalerylspiramycin I]	0.5 µg/mL (≈ 0.539 µM)	0.12 µg/mL (≈ 0.129 µM)	0.12 to 16 µg/mL	1 µg/mL (≈ 1.08 µM)	4 µg/mL (≈ 4.31 µM)	0.25 µg/mL (≈ 0.27 µM)	32 µg/mL (≈ 34.5 µM)	1 µg/mL (≈ 1.08 µM)	32 µg/mL (≈ 34.5 µM)	0.25 µg/mL (≈ 0.27 µM)	13.9 mg/kg	9.73 mg/kg	9.51 mg/kg	0.25 µg/mL (≈ 0.27 µM)	0.12 µg/mL (≈ 0.129 µM)	2 µg/mL (≈ 2.16 µM)	77.5 mg/kg	23.5 mg/kg	42.7 mg/kg	110 mg/kg	MIC [1]: 1 µg/mL (≈ 1.08 µM); ED50 [17]: 24.4 mg/kg; MIC range [18]: 0.03 to 32 µg/mL; MIC50 [18]: 0.12 µg/mL (≈ 0.129 µM); MIC90 [18]: 1 µg/mL (≈ 1.08 µM); Mortality rate (%) ([19]; mice, oral): 35%; mortality ([19]; mice, oral, deaths of 20 animals, observed one week): 7; LD50 at 1 week ([19]; mouse, in vivo, po): > 4000 mg/kg; MIC50 [20]: 1 µg/mL (≈ 1.08 µM); MIC90 [20]: 64 µg/mL (≈ 69 µM)
COC1C(OC(C)=O)CC(=O)OC(C)C/C=C/C=C/C(OC2CCC(N(C)C)C(C)O2)C(C)CC(CC=O)C1OC1OC(C)C(OC2CC(C)(O)C(OC(=O)CC(C)C)C(C)O2)C(N(C)C)C1O (stereo not drawn) [Levoisovalerylspiramycin II, levoisovalerylspiramycin II]	0.25 µg/mL (≈ 0.258 µM)	0.12 µg/mL (≈ 0.124 µM)	0.12 to 16 µg/mL	1 µg/mL (≈ 1.03 µM)	4 µg/mL (≈ 4.13 µM)	0.25 µg/mL (≈ 0.258 µM)	32 µg/mL (≈ 33 µM)	1 µg/mL (≈ 1.03 µM)	64 µg/mL (≈ 66 µM)	0.25 µg/mL (≈ 0.258 µM)	13.1 mg/kg	8.99 mg/kg	8.98 mg/kg	0.25 µg/mL (≈ 0.258 µM)	0.12 µg/mL (≈ 0.124 µM)	2 µg/mL (≈ 2.06 µM)	70.2 mg/kg	20.9 mg/kg	38.9 mg/kg	108 mg/kg	MIC [1]: 1 µg/mL (≈ 1.03 µM); ED50 [17]: 22.3 mg/kg; MIC range [18]: 0.03 to 32 µg/mL; MIC50 [18]: 0.12 µg/mL (≈ 0.124 µM); MIC90 [18]: 1 µg/mL (≈ 1.03 µM); LD50 at 1 week ([19]; mouse, in vivo, po): > 4000 mg/kg; Mortality rate (%) ([19]; mouse, in vivo, po, 1 week): 35%; mortality ([19]; mouse, in vivo, po, 1 week): 7; MIC50 [20]: 1 µg/mL (≈ 1.03 µM); MIC90 [20]: 32 µg/mL (≈ 33 µM)
CCC(=O)OC1CC(=O)OC(C)C/C=C/C=C/C(OC2CCC(N(C)C)C(C)O2)C(C)CC(CC=O)C(OC2OC(C)C(OC3CC(C)(O)C(OC(=O)CC(C)C)C(C)O3)C(N(C)C)C2O)C1OC (stereo not drawn) [Levoisovalerylspiramycin III, levoisovalerylspiramycin III]	0.25 µg/mL (≈ 0.254 µM)	0.12 µg/mL (≈ 0.122 µM)	0.12 to 16 µg/mL	1 µg/mL (≈ 1.02 µM)	4 µg/mL (≈ 4.07 µM)	0.25 µg/mL (≈ 0.254 µM)	32 µg/mL (≈ 32.5 µM)	1 µg/mL (≈ 1.02 µM)	32 µg/mL (≈ 32.5 µM)	0.25 µg/mL (≈ 0.254 µM)	13.1 mg/kg	8.99 mg/kg	8.98 mg/kg	0.25 µg/mL (≈ 0.254 µM)	0.12 µg/mL (≈ 0.122 µM)	4 µg/mL (≈ 4.07 µM)	70.2 mg/kg	20.9 mg/kg	38.9 mg/kg	108 mg/kg	MIC [1]: 1 µg/mL (≈ 1.02 µM); ED50 [17]: 22.3 mg/kg; MIC range [18]: 0.03 to 32 µg/mL; MIC50 [18]: 0.12 µg/mL (≈ 0.122 µM); MIC90 [18]: 1 µg/mL (≈ 1.02 µM); LD50 at 1 week ([19]; mouse, in vivo, po): > 4000 mg/kg; Mortality rate (%) ([19]; mouse, in vivo, po, 1 week): 35%; mortality ([19]; mouse, in vivo, po, 1 week): 7; MIC50 [20]: 2 µg/mL (≈ 2.03 µM); MIC90 [20]: 32 µg/mL (≈ 32.5 µM)
CC[C@H]1OC(=O)[C@H](C)[C@@H](O[C@H]2C[C@@](C)(OC)[C@@H](O)[C@H](C)O2)[C@H](C)[C@@H](O[C@@H]2O[C@H](C)C[C@H](N(C)C)[C@H]2O)[C@](C)(O)C[C@@H](C)CN(C)[C@H](C)[C@@H](O)[C@]1(C)O [azithromycin, reference compound]	0.5 µg/mL (≈ 0.668 µM)	0.12 µg/mL (≈ 0.16 µM)	0.12 to 64 µg/mL	2 µg/mL (≈ 2.67 µM)	8 µg/mL (≈ 10.7 µM)	0.5 µg/mL (≈ 0.668 µM)	> 64 µg/mL	8 µg/mL (≈ 10.7 µM)	> 64 µg/mL	0.5 µg/mL (≈ 0.668 µM)	19 mg/kg	18.3 mg/kg	14.9 mg/kg	0.25 µg/mL (≈ 0.334 µM)	0.25 µg/mL (≈ 0.334 µM)	8 µg/mL (≈ 10.7 µM)	147 mg/kg	32 mg/kg	143 mg/kg	120 mg/kg	MIC [1]: 2 µg/mL (≈ 2.67 µM); ED50 [17]: 58.8 mg/kg; MIC50 [18]: 0.25 µg/mL (≈ 0.334 µM); MIC90 [18]: 2 µg/mL (≈ 2.67 µM); MIC50 [20]: 2 µg/mL (≈ 2.67 µM); MIC90 [20]: > 64 µg/mL
CC[C@H]1OC(=O)[C@H](C)[C@@H](O[C@H]2C[C@@](C)(OC)[C@@H](O)[C@H](C)O2)[C@H](C)[C@@H](O[C@@H]2O[C@H](C)C[C@H](N(C)C)[C@H]2O)[C@](C)(O)C[C@@H](C)C(=O)[C@H](C)[C@@H](O)[C@]1(C)O [erythrocin, reference compound]	1 µg/mL (≈ 1.36 µM)	1 µg/mL (≈ 1.36 µM)	0.12 to 64 µg/mL	1 µg/mL (≈ 1.36 µM)	8 µg/mL (≈ 10.9 µM)	0.5 µg/mL (≈ 0.681 µM)	> 64 µg/mL	8 µg/mL (≈ 10.9 µM)	> 64 µg/mL	0.5 µg/mL (≈ 0.681 µM)	102 mg/kg	85.1 mg/kg	57.1 mg/kg	0.5 µg/mL (≈ 0.681 µM)	0.25 µg/mL (≈ 0.341 µM)	64 µg/mL (≈ 87.2 µM)	175 mg/kg	82.4 mg/kg	214 mg/kg	266 mg/kg	ED50 [17]: 64.2 mg/kg; MIC50 [18]: 0.06 µg/mL (≈ 0.0818 µM); MIC90 [18]: 32 µg/mL (≈ 43.6 µM); MIC50 [20]: 1 µg/mL (≈ 1.36 µM); MIC90 [20]: > 64 µg/mL
